Values of other authors as cited in US11737967B2, “Increasing the stability of agents for treating keratin material” (Henkel AG & Co. KGaA, priority 2019, dated 2023).

Details: 25° C.

| Compound | solubility in water |
| --- | --- |
| CCN(Cc1cccc(S(=O)(=O)[O-])c1)c1ccc(C(=C2C=CC(=[N+](CC)Cc3cccc(S(=O)(=O)[O-])c3)C=C2)c2ccccc2S(=O)(=O)[O-])cc1.[Na+].[Na+] [Acid Blue 9] | more than 20 % by weight |
| O=S(=O)([O-])c1ccc(N=Nc2c(O)ccc3ccccc23)cc1.[Na+] [Acid Orange 7, sodium salt of 4-[(2-hydroxy-1-naphthyl)azo]benzene sulphonate] | more than 7 g/L |
| Nc1cc(S(=O)(=O)[O-])cc2cc(S(=O)(=O)[O-])c(N=Nc3ccccc3)c(O)c12.[Na+].[Na+] [Acid Red 33, diantrium salt of 5-amino-4-hydroxy-3-(phenylazo)-naphthalene-2,7-disulphonate] | 2.5 g/L |
| O=C([O-])c1c(Cl)c(Cl)c(Cl)c(Cl)c1-c1c2c(Br)cc(=O)c(Br)c-2oc2c(Br)c(O)cc(Br)c12.O=C([O-])c1c(Cl)c(Cl)c(Cl)c(Cl)c1-c1c2c(Br)cc(=O)c(Br)c-2oc2c(Br)c(O)cc(Br)c12.[Na+].[Na+] [Acid Red 92, disodium salt of 3,4,5,6-tetrachloro-2-(1,4,5,8-tetrabromo-6-hydroxy-3-oxoxanthen-9-yl)benzoic acid] | greater than 10 g/L |
| O=C([O-])C1=NN(c2ccc(S(=O)(=O)[O-])cc2)C(=O)C1N=Nc1ccc(S(=O)(=O)[O-])cc1.[Na+].[Na+].[Na+] (centres unmarked) [Acid Yellow 23, trisodium salt of 4,5-dihydro-5-oxo-1-(4-sulfophenyl)-4-((4-sulfophenyl)azo)-1H-pyrazole-3-carboxylic acid] | highly soluble |
